The values below come from patent US9090593B2, “Bicyclic compounds as Pim inhibitors” (AMGEN INC., priority 2010, dated 2015).

Assay [1] has as its target T1, full length recombinant Pim-1 protein (Homo sapiens, UniProt P11309).
T1 construct: by full length recombinant Pim-1, Pim-2, or Pim-3 protein; hexahistidine tag followed by a thrombin cleavage site (N); made in house; host or cells: Sf9 (baculovirus) or E. coli (pET28)
Briefly: Pim-1 enzyme assay (HTRF, phosphorylation of biotinylated-BAD (S112) peptide). It is filed as biochemical. Particulars: read-out: Pim_1_IC50. Put shortly:
(§1)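 Recombinant full-length Pim-1 or Pim-2 was incubated with biotinylated BAD (S112) peptide in pH 7.0 Hepes buffer with BSA and DTT. After an EDTA stop, phosphopeptide was quantified by time-resolved FRET between a europium antibody and streptavidin-APC, and IC50 values came from 4-parameter logistic curves.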

Assay [2] has as its target T2, full length recombinant Pim-2 protein (Homo sapiens, UniProt Q9P1W9).
T2 construct: by full length recombinant Pim-1, Pim-2, or Pim-3 protein; hexahistidine tag followed by a thrombin cleavage site (N); made in house; host or cells: Sf9 (baculovirus) or E. coli (pET28)
Briefly: Pim-2 enzyme assay (HTRF, phosphorylation of biotinylated-BAD (S112) peptide). It is filed as biochemical. As to conditions: read-out: Pim2_IC50. In outline:
as §1
On the technique in general: Time-resolved FRET reads energy transfer from a long-lived donor to a nearby acceptor.

In assay [3] the target is T3, Pim-1 stably transfected into the U2OS human osteogenic sarcoma line (Homo sapiens, UniProt P11309).
T3 construct: expressed in transfected cells; host or cells: U2OS human osteogenic sarcoma line
Nature of the assay: Pim cell assay, phospho-BAD normalized against total BAD, U2OS stably transfected with Pim-1. It is filed as cell-based. The method, then:
(§2) The cell lines used in the assay were generated by the stable transfection of either Pim-1 or Pim-2 into the U2OS human osteogenic sarcoma line. The assay for determination of the Pim activity in the engineered U2OS cell lines measures levels of phospho-BAD normalized against total BAD protein levels. It was conducted as follows:
(§3) The adherent cells were dissociated from the flasks using non-enzymatic cell dissociation solution (Sigma # C5914). […] The cells were then incubated overnight at 37° C., 5% CO2.
(§4) In addition to the 10-point dosing curve of the test compound, DMSO alone was run as the high control.
(§5) This dilution in DMSO was then diluted again into cell growth medium. Aliquots (12 uL) of the compound diluted in growth medium were then transferred to the appropriate wells of the 96-well plates containing cells to yield a final DMSO concentration of 0.3%.
(§6) The cell plates containing lysis buffer were then immediately stored at −70° C.
(§7) These prepared lysates were then assayed for phospho and total BAD according to the manufacturer's protocols (Meso Scale Diagnostics, Cat# K15103C-3 & # K15103D-3). The plates were read on the MSD Sector Imager 6000, and results were calculated according to the assay protocols ((% Phosphoprotein=((2×Phospho signal)/(Phospho signal+Total signal))×100)).

Assay [4] concerns the target T4, Pim-2 stably transfected into the U2OS human osteogenic sarcoma line (Homo sapiens, UniProt Q9P1W9).
T4 construct: expressed in transfected cells; host or cells: U2OS human osteogenic sarcoma line
Nature of the assay: Pim cell assay, phospho-BAD normalized against total BAD, U2OS stably transfected with Pim-2. It is filed as cell-based. The method, then:
as §2, §3, §4, §5, §6, §7

Setting [5] is: U2OS cells stably transfected with Pim-1, phospho-BAD, high dose […], read-out: Pim1_Cell_IC50.
The mark [6] stands for this setting: U2OS cells stably transfected with Pim-2, phospho-BAD, high dose […], read-out: Pim2_Cell_IC50.
The mark [7] stands for this setting: U2OS stably transfected with Pim-1, phospho-BAD normalized against total BAD, 29 min incubation, read-out: Pim1_Cell_IC50_.
The mark [8] stands for this setting: U2OS stably transfected with Pim-2, phospho-BAD normalized against total BAD, 29 min incubation, read-out: Pim2_Cell_IC50_.

Structures can show the parent of a compound that is named as a salt. Where two headings read alike, the source gives them in different places.

T4 sequence (Q9P1W9 whole entry): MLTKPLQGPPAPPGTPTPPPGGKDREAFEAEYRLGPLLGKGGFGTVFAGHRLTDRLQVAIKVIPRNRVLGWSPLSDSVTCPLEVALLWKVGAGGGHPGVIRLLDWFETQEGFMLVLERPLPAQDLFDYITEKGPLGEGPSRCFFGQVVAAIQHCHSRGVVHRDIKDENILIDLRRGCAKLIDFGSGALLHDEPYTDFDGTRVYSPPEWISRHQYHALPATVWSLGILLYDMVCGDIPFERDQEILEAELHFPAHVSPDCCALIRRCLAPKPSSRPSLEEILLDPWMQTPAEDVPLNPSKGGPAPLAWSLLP
T2 sequence (Q9P1W9 whole entry): as above
T3 sequence (P11309 whole entry): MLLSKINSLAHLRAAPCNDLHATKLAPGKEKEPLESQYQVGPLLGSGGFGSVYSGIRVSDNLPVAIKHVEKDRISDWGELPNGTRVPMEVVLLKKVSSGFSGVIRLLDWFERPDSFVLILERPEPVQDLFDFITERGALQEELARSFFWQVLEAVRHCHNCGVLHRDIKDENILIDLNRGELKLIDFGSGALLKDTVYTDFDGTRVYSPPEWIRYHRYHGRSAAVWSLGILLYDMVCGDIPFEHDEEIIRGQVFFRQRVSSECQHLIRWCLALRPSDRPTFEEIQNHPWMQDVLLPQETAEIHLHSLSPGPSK
T1 sequence (P11309 whole entry): as above

Take `COc1cncc(-c2ccc3[nH]nc(-c4ccnc(N5CCC(N)CC5)n4)c3c2)c1` [Example 30, 1-(4-(5-(5-Methoxypyridin-3-yl)-1H-indazol-3-yl)pyrimidin-2-yl)piperidin-4-amine]: the IC50 was 1 nM in assay [1] (enzyme assay, Pim-1); 7 nM in assay [2] (enzyme assay, Pim-2); 89 nM in assay [3] (read-out: Pim1_Cell_IC50); 2240 nM in assay [4] (read-out: Pim2_Cell_IC50).

Regarding `NC1CCN(c2cncc(-c3n[nH]c4ccc(-c5cnc6[nH]ccc6c5)cc34)n2)CC1` [Example 57, 1-(6-(5-(1H-pyrrolo[2,3-b]pyridin-5-yl)-1H-indazol-3-yl)-2-pyrazinyl)-4-piperidinamine], the IC50 in assay [1] (enzyme assay, Pim-1) is 1 nM; in assay [2] (enzyme assay, Pim-2), 10 nM; in assay [3] (setting [5]), 605 nM; in assay [4] (setting [6]), more than 31600 nM.

With `Nc1cncc(-c2ccc3[nH]nc(-c4cncc(N5CCC(N)CC5)n4)c3c2)c1` [Example 73, 5-(3-(6-(4-amino-1-piperidinyl)-2-pyrazinyl)-1H-indazol-5-yl)-3-pyridinamine], the IC50 in assay [1] (enzyme assay, Pim-1) is 1 nM; in assay [2] (enzyme assay, Pim-2), 3 nM; in assay [3] (setting [5]), 885 nM; in assay [4] (setting [6]) it was more than 31600 nM.

Turning to `COc1cncc(-c2ccc3[nH]nc(-c4cncc(N5CCC(N)CC5)n4)c3c2)c1` [Example 79, 1-(6-(5-(5-methoxy-3-pyridinyl)-1H-indazol-3-yl)-2-pyrazinyl)-4-piperidinamine], the IC50 in assay [1] (enzyme assay, Pim-1) stood at 1 nM; in assay [2] (enzyme assay, Pim-2), 9 nM; in assay [3] (setting [5]) it was 182 nM; in assay [4] (setting [6]), 3890 nM.

Consider `NC1CCN(c2cncc(-c3n[nH]c4ccc(-c5cccnc5)cc34)n2)CC1` [Example 82, 1-(6-(5-(3-pyridinyl)-1H-indazol-3-yl)-2-pyrazinyl)-4-piperidinamine], for which the IC50 was 1 nM in assay [1] (enzyme assay, Pim-1); 7 nM in assay [2] (enzyme assay, Pim-2); 171 nM in assay [3] (setting [5]); 7810 nM in assay [4] (setting [6]).

For `c1cc(-c2ccc3[nH]nc(-c4cncc(O[C@@H]5CCCNC5)n4)c3c2)nc(NC2CC2)n1` [Example 242, N-cyclopropyl-4-(3-(6-((3R)-3-piperidinyloxy)-2-pyrazinyl)-1H-indazol-5-yl)-2-pyrimidinamine], the IC50 in assay [1] was determined as 5 nM; in assay [2], 108 nM; in assay [3] (setting [7]), 369 nM; in assay [4] (setting [8]) it was 31500 nM.

`c1cc2[nH]nc(-c3cncc(C4CC4)n3)c2cc1-c1cncc(C2CC2)n1` [Example 244, 3,5-bis(6-cyclopropyl-2-pyrazinyl)-1H-indazole]: the IC50 is 1 nM in assay [1], 3 nM in assay [2], 169 nM in assay [3] (setting [7]) and more than 10000 nM in assay [4] (setting [8]).

As to `c1cc2[nH]cc(-c3cncc(C4CC4)n3)c2cc1-c1cncc(C2CC2)n1` [Example 245, 3,5-bis(6-cyclopropyl-2-pyrazinyl)-1H-indole], the IC50 was 28 nM in assay [1], 345 nM in assay [2], 3640 nM in assay [3] (setting [7]) and more than 31600 nM in assay [4] (setting [8]).

On to `C1=C(c2ccc3[nH]nc(-c4cncc(O[C@H]5CNCCC56CC6)n4)c3c2)CCOC1` [Example 263, 3-(6-((4R)-6-azaspiro[25]oct-4-yloxy)-2-pyrazinyl)-5-(3,6-dihydro-2H-pyran-4-yl)-1H-indazole 2,2,2-trifluoroacetate salt], for which the IC50 in assay [1] was 4 nM; in assay [2], 8 nM; in assay [3] (setting [7]), 180 nM; in assay [4] (setting [8]), 5760 nM.

For the compound `c1cc2[nH]nc(-c3cncc(O[C@H]4CNCCC45CC5)n3)c2cc1C1CCOCC1` [Example 264, 3-(6-((4R)-6-azaspiro[25]oct-4-yloxy)-2-pyrazinyl)-5-(tetrahydro-2H-pyran-4-yl)-1H-indazole-2,2,2-trifluoroacetate], the IC50 was 6 nM in assay [1], 15 nM in assay [2], 276 nM in assay [3] (setting [7]) and more than 10000 nM in assay [4] (setting [8]).

Take `NC1CCN(c2nc(-c3c[nH]c4ccc(-c5c(F)cccc5F)cc34)cc(=O)[nH]2)CC1` [Example 277, 2-(4-aminopiperidin-1-yl)-6-(5-(2,6-difluorophenyl)-1H-indol-3-yl)pyrimidin-4(3H)-one]: the IC50 in assay [1] was 1 nM; in assay [2], 2 nM; in assay [3] (setting [7]), 2470 nM; in assay [4] (setting [8]) it was more than 31600 nM.

For `CC(C)Nc1nc(-c2c[nH]c3ccc(-c4cncc(C5CC5)n4)cc23)cc(=O)[nH]1` [Example 287, 6-(5-(6-cyclopropylpyrazin-2-yl)-1H-indol-3-yl)-2-(isopropylamino) pyrimidin-4(3H)-one], the IC50 in assay [1] was 6 nM; in assay [2], 87 nM; in assay [3] (setting [7]), 1310 nM; in assay [4] (setting [8]), more than 31600 nM.

Regarding `COc1cc(-c2ccc3[nH]cc(-c4cncc(O[C@@H]5CCCNC5)n4)c3c2)c(F)cn1` [Example 290], the IC50 in assay [1] came out at 4 nM; in assay [2] it was 11 nM; in assay [3] (setting [7]) it was 313 nM; in assay [4] (setting [8]), 6530 nM.

On to `c1cc2[nH]cc(-c3cncc(O[C@@H]4CCCNC4)n3)c2cc1-c1cnn(C2CC2)c1` [Example 291, 5-(1-cyclopropyl-1H-pyrazol-4-yl)-3-(6-((3R)-3-piperidinyloxy)-2-pyrazinyl)-1H-indole], for which the IC50 in assay [1] came out at 6 nM; in assay [2], 32 nM; in assay [3] (setting [7]), 154 nM; in assay [4] (setting [8]), 11800 nM.

Take `COc1ccc(-c2ccc3[nH]cc(-c4cncc(O[C@@H]5CCCNC5)n4)c3c2)cc1F` [Example 292]: the IC50 is 4 nM in assay [1], 19 nM in assay [2], 649 nM in assay [3] (setting [7]) and not below 35200 nM in assay [4] (setting [8]).

On to `Oc1ncc(-c2ccc3[nH]cc(-c4cncc(O[C@@H]5CCCNC5)n4)c3c2)c(O)n1` [Example 293], for which the IC50 is 16 nM in assay [1], 60 nM in assay [2], more than 31600 nM in assay [3] (setting [7]) and more than 31600 nM in assay [4] (setting [8]).

In the case of `COc1cc(OC)cc(-c2ccc3[nH]cc(-c4cncc(O[C@@H]5CCCNC5)n4)c3c2)c1` [Example 294], the IC50 in assay [1] stood at 7 nM; in assay [2], 26 nM; in assay [3] (setting [7]) it was 521 nM; in assay [4] (setting [8]), 9440 nM.

Consider `Fc1cnccc1-c1ccc2[nH]cc(-c3cncc(O[C@@H]4CCCNC4)n3)c2c1` [Example 297, 5-(3-fluoro-4-pyridinyl)-3-(6-((3R)-3-piperidinyloxy)-2-pyrazinyl)-1H-indole], for which the IC50 worked out at 3 nM in assay [1], 7 nM in assay [2], 166 nM in assay [3] (setting [7]) and 8450 nM in assay [4] (setting [8]).

For `c1cc(-c2ccc3[nH]cc(-c4cncc(O[C@@H]5CCCNC5)n4)c3c2)nc(N2CCNCC2)c1` [Example 299], the IC50 in assay [1] was 3 nM; in assay [2], 231 nM; in assay [3] (setting [7]), 1270 nM; in assay [4] (setting [8]), more than 31600 nM.

As to `c1cc(N2CCOCC2)ccc1-c1ccc2[nH]cc(-c3cncc(O[C@@H]4CCCNC4)n3)c2c1` [Example 309, 5-(4-(4-morpholinyl)phenyl)-3-(6-((3R)-3-piperidinyloxy)-2-pyrazinyl)-1H-indole], the IC50 in assay [1] worked out at 4 nM; in assay [2], 18 nM; in assay [3] (setting [7]), 125 nM; in assay [4] (setting [8]), 17000 nM.

As for `O=C(Nc1ccc(-c2ccc3[nH]cc(-c4cncc(O[C@@H]5CCCNC5)n4)c3c2)cc1)C1CC1` [Example 311], the IC50 in assay [1] was 8 nM; in assay [2], 25 nM; in assay [3] (setting [7]), 412 nM; in assay [4] (setting [8]), more than 31600 nM.
